For 20 molecules, IC50 results are on record in patent publication US11458140B2, “Annulated glycosidase inhibitors” (Asceneuron SA, priority 2017, dated 2022).

One may read the pIC50 as the negative decadic logarithm of the IC50, by convention in mol/L. The term IC50 denotes the concentration at which inhibition is half-maximal. Low readings indicate higher potency, high ones lower potency.

For this assay, the target named is Human O-GlcNAcase (His-Tagged hOGA) (Homo sapiens (Human), UniProt O60502). The assay can be described thus: Human O-GlcNAcase enzyme inhibition assay (FL-GlcNAc fluorescence). Particulars: His-Tagged hOGA 20 nM, FL-GlcNAc 10 μM, 60 min at room temperature, pH 6.5; for pIC50: read-out: Enzymatic OGA IC50; for IC50: Enzymatic OGA IC50 (M). In kind it is biochemical.
Sequence of Human O-GlcNAcase (His-Tagged hOGA) (O60502 whole entry): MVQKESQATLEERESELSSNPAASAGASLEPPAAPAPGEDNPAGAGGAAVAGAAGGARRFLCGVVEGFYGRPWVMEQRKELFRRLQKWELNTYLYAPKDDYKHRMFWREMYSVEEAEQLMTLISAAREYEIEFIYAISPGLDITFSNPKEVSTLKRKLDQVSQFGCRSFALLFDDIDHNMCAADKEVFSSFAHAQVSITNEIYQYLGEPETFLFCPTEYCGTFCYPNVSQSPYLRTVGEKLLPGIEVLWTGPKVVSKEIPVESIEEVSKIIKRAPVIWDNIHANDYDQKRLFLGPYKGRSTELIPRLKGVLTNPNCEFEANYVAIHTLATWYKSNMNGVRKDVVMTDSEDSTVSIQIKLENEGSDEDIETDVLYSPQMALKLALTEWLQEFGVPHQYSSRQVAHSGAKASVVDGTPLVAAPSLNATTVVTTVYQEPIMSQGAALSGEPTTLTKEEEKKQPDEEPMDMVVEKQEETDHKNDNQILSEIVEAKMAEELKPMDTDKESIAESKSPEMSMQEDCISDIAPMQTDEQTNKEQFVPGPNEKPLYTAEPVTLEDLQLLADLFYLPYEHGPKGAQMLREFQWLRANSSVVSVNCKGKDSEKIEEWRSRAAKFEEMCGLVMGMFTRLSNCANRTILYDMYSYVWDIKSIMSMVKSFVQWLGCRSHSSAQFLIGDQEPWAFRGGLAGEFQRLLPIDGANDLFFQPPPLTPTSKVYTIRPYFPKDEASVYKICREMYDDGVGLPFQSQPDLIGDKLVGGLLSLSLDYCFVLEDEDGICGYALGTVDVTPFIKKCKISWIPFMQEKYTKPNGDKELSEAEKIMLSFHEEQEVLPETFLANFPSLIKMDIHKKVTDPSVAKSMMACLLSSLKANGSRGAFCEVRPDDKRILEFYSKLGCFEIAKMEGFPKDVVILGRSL

pIC50: −log10 of the molar value. Read-outs that look alike come from different tables or passages of the source.

Protocol: Then, 20 nM of His-Tagged hOGA and 10 μM of FL-GlcNAc (Fluorescein mono-beta-D-(2-deoxy-2-N-acetyl) glucopyranoside; Marker Gene Technologies Inc, M1485) were added to the 384-well plate for a final volume of 20 μl.

Consider “5-(1-(2,3-dihydrobenzofuran-6-yl)ethyl)-1-(pyridin-2-yl)-4,5,6,7-tetrahydro-1H-pyrazolo[4,3-c]pyridine [Example 9]”, for which the pIC50 was 6.70 to 7.30.
Take “5-(1-(2,3-dihydrobenzofuran-6-yl)ethyl)-2-(pyridin-2-yl)-4,5,6,7-tetrahydro-2H-pyrazolo[4,3-c]pyridine [Example 10]”: the pIC50 was 6.70 to 7.30.
On to `CC(=O)Nc1ncc2c(n1)CCN(C(C)c1ccc3c(c1)OCO3)C2` (racemic) [Example 1, N-(6-(1-(benzo[d][1,3]dioxol-5-yl)ethyl)-5,6,7,8-tetrahydropyrido[4,3-d]pyrimidin-2-yl)acetamide], for which the pIC50 was 5.00 to 6.00.
Same read-out and setting: as for `CC(c1ccc2c(c1)OCO2)N1CCc2ccccc2C1` (racemic) [Example 2, 2-(1-(benzo[d][1,3]dioxol-5-yl)ethyl)-1,2,3,4-tetrahydroisoquinoline], the figure is 6.00 to 6.70.
Regarding `CC(=O)Nc1nc2c(s1)CN(C(C)c1ccc3c(c1)OCO3)CC2` (racemic) [Example 3, N-(5-(1-(benzo[d][1,3]dioxol-5-yl)ethyl)-4,5,6,7-tetrahydrothiazolo[5,4-c]pyridin-2-yl)acetamide], the IC50 fell in the range of 2e-07 to 1e-06 M.
For `CC(c1ccc2c(c1)OCC2)N1CCc2n[nH]cc2C1` (racemic) [Example 4, 5-(1-(2,3-dihydrobenzofuran-6-yl)ethyl)-4,5,6,7-tetrahydro-2H-pyrazolo[4,3-c]pyridine], the pIC50 was 6.70 to 7.30.
Turning to `CC(c1ccc2c(c1)OCC2)N1CCc2c(cnn2-c2ccc(F)cc2)C1` (racemic) [Example 5, 5-(1-(2,3-dihydrobenzofuran-6-yl)ethyl)-1-(4-fluorophenyl)-4,5,6,7-tetrahydro-1H-pyrazolo[4,3-c]pyridine], the pIC50 is 6.70 to 7.30.
On to `CC(c1ccc2c(c1)OCC2)N1CCc2nn(-c3ccc(F)cc3)cc2C1` (racemic) [Example 6, 5-(1-(2,3-dihydrobenzofuran-6-yl)ethyl)-2-(4-fluorophenyl)-4,5,6,7-tetrahydro-2H-pyrazolo[4,3-c]pyridine], for which the pIC50 was 6.70 to 7.30.
For `CC(c1ccc2c(c1)OCC2)N1CCc2c(cnn2-c2ccccc2)C1` (racemic) [Example 7, 5-(1-(2,3-dihydrobenzofuran-6-yl)ethyl)-1-phenyl-4,5,6,7-tetrahydro-1H-pyrazolo[4,3-c]pyridine], the negative logarithm of the IC50 (pIC50) is 6.70 to 7.30.
With `CC(c1ccc2c(c1)OCC2)N1CCc2nn(-c3ccccc3)cc2C1` (racemic) [Example 8, 5-(1-(2,3-dihydrobenzofuran-6-yl)ethyl)-2-phenyl-4,5,6,7-tetrahydro-2H-pyrazolo[4,3-c]pyridine], the pIC50 was 6.70 to 7.30.
As to `CC(c1ccc2c(c1)OCC2)N1CCc2nc(-c3ccc(F)cc3)sc2C1` (racemic) [Example 11, 5-(1-(2,3-dihydrobenzofuran-6-yl)ethyl)-2-(4-fluorophenyl)-4,5,6,7-tetrahydrothiazolo[5,4-c]pyridine], the pIC50 is 6.00 to 6.70.
On the same count and under the same terms, in the case of `CC(c1ccc2c(c1)OCC2)N1CCc2c(cnn2-c2cncnc2)C1` (racemic) [Example 14, 5-(1-(2,3-dihydrobenzofuran-6-yl)ethyl)-1-(pyrimidin-5-yl)-4,5,6,7-tetrahydro-1H-pyrazolo[4,3-c]pyridine] it was 6.00 to 6.70.
Turning to `CC(c1ccc2c(c1)OCC2)N1CCn2nc(-c3ccc(S(C)(=O)=O)cc3)nc2C1` (racemic) [Example 17], the IC50 was 1e-06 to 1e-05 M.
For `CC(c1ccc2c(c1)OCC2)N1CCn2nc(-c3cccnc3)nc2C1` (racemic) [Example 18, 7-(1-(2,3-dihydrobenzofuran-6-yl)ethyl)-2-(pyridin-3-yl)-5,6,7,8-tetrahydro-[1,2,4]triazolo[1,5-a]pyrazine], the pIC50 was 5.00 to 6.00.
Take `CC(c1ccc2c(c1)OCC2)N1CCn2nc(Nc3ccc(C#N)cn3)nc2C1` (racemic) [Example 19, 6-((7-(1-(2,3-dihydrobenzofuran-6-yl)ethyl)-5,6,7,8-tetrahydro-[1,2,4]triazolo[1,5-a]pyrazin-2-yl)amino)nicotinonitrile]: the pIC50 was 5.00 to 6.00.
The same measure, in the same setting: in the case of `CC(c1ccc2c(c1)OCC2)N1CCc2nn(Cc3ncccn3)cc2C1` (racemic) [Example 20, 5-(1-(2,3-dihydrobenzofuran-6-yl)ethyl)-2-(pyrimidin-2-ylmethyl)-4,5,6,7-tetrahydro-2H-pyrazolo[4,3-c]pyridine] it was 6.00 to 6.70; in that of `CC(c1ccc2c(c1)OCC2)N1CCc2c(cnn2Cc2ncccn2)C1` (racemic) [Example 21, 5-(1-(2,3-dihydrobenzofuran-6-yl)ethyl)-1-(pyrimidin-2-ylmethyl)-4,5,6,7-tetrahydro-1H-pyrazolo[4,3-c]pyridine], 6.00 to 6.70.
Regarding `CC(c1ccc2c(c1)OCC2)N1CCc2nn(-c3ccccc3)cc2C1` (single isomer, unassigned) [Example 12], the pIC50 is 5.00 to 6.00.
For the molecule `CC(c1ccc2c(c1)OCC2)N1CCc2nn(-c3ccccc3)cc2C1` (single isomer, unassigned) [Example 13], the pIC50 was 6.70 to 7.30.
Consider `CC(c1ccc2c(c1)OCC2)N1CCc2nn(C3CCOCC3)cc2C1` (centres unmarked) [Example 15, 5-(1-(2,3-dihydrobenzofuran-6-yl)ethyl)-1-(tetrahydro-2H-pyran-4-yl)-4,5,6,7-tetrahydro-1H-pyrazolo[4,3-c]pyridine or 5-(1-(2,3-dihydrobenzofuran-6-yl)ethyl)-2-(tetrahydro-2H-pyran-4-yl)-4,5,6,7-tetrahydro-2H-pyrazolo[4,3-c]pyridine], for which the pIC50 was 5.00 to 6.00.
